From BindingDB's records for doi:10.1016/j.ejmech.2009.09.041 (Institute For Medical Research and Occupational Health, 2010)
pKi: −log10 of the molar value.

How the values were obtained:
[1] = biological target: Cholinesterase (Homo sapiens, UniProt P06276); assay: Inhibition of human plasma BChE by Ellman's method
[2] = biological target: Acetylcholinesterase (Homo sapiens, UniProt P22303); assay: Inhibition of human recombinant AChE by Ellman's method
Chain of Acetylcholinesterase (P22303 whole entry): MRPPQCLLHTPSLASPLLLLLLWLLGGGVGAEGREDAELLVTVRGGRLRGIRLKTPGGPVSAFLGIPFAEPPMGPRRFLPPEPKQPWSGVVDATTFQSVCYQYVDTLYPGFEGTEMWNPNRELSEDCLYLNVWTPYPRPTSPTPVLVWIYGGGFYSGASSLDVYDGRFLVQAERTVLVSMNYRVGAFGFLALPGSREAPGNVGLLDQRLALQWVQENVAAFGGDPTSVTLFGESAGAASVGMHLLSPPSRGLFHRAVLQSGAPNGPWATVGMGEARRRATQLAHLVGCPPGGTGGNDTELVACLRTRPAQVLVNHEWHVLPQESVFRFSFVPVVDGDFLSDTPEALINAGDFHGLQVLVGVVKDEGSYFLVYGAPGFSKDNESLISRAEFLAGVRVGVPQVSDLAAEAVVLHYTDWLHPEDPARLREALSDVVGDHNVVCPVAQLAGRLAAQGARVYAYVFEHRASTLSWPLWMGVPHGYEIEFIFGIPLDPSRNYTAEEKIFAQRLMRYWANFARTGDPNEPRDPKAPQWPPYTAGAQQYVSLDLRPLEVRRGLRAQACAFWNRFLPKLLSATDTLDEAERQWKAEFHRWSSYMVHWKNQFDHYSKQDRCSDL

Chain of Cholinesterase (P06276 whole entry): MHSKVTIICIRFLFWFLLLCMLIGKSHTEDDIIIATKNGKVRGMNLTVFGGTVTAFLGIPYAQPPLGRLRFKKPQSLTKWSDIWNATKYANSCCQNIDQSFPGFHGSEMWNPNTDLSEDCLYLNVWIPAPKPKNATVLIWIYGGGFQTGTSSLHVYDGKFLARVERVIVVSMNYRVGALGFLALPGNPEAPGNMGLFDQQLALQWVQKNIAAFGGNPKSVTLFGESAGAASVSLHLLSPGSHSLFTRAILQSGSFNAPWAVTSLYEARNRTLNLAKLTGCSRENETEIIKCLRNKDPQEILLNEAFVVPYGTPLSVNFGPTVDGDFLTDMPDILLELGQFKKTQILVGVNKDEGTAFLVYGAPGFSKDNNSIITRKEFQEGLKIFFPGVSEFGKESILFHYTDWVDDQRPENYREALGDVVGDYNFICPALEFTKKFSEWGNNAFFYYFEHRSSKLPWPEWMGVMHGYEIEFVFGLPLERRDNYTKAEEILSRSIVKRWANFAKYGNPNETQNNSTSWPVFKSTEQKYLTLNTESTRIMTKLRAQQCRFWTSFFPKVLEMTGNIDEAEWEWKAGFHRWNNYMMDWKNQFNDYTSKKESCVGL

In the case of `O=c1c(O)c(-c2cc(O)c(O)c(O)c2)oc2cc(O)cc(O)c12`, the pKi [1] was 4.15 and the pKi [2] was 4.42.

`O=c1c(O)c(-c2ccc(O)c(O)c2)oc2cc(O)cc(O)c12` [2-(3,4-dihydroxyphenyl)-3,5,7-trihydroxy-chromone;hydrate] showed a pKi [1] of 4.17 and a pKi [2] of 4.42.

`O=c1cc(-c2ccc(O)cc2)oc2cc(O)cc(O)c12` [Naringenin, 18] was tested, and the pKi [1] was 4.43 and the pKi [2] was 3.92.

`O=c1c(O)c(-c2ccc(O)c(O)c2)oc2cc(O)ccc12` [2-(3,4-dihydroxyphenyl)-3,7-dihydroxy-chromen-4-one] was tested, and the pKi [1] was 4.05 and the pKi [2] was 4.00.

`O=c1cc(-c2ccc(O)c(O)c2)oc2cc(O)cc(O)c12` [2-(3,4-dihydroxyphenyl)-5,7-dihydroxy-4H-chromen-4-one] was tested, and the pKi [1] was 3.78 and the pKi [2] was 4.18.

For `O=c1c(O)c(-c2ccccc2)oc2cc(O)cc(O)c12` [norizalpinin], the pKi [1] was 5.16 and the pKi [2] was 4.07.

For `O=c1c(O)c(-c2ccc(O)cc2)oc2cc(O)cc(O)c12`, the pKi [1] was 4.37 and the pKi [2] was 4.03.

In the case of `C[C@@H]1O[C@@H](OC[C@H]2O[C@@H](Oc3c(-c4ccc(O)c(O)c4)oc4cc(O)cc(O)c4c3=O)[C@H](O)[C@@H](O)[C@@H]2O)[C@H](O)[C@H](O)[C@H]1O` [3-Rhamnoglucosylquercetin], the pKi [1] was 3.30 and the pKi [2] was < 3.52.
